Experimental data: patent publication US20130209386A1, “NEW USES” (EVOCUTIS PLC, priority 2010, published 2013)
In brackets after ≈: the same amount, converted by molar mass. Several values for one entry are separate records, joined by “and”; a condition that tells them apart may be missing. Equal values may be shown once. Read-outs that look alike come from different tables or passages of the source. Marks after values point to notes of the source that are not given here.

Experiments:
[1] = tested on: Propionibacterium acnes NCTC 737; experiment: Minimum inhibitory concentration (MIC) assay; type: cell-based
Method: (§1) The first test organism used was Propionibacterium acnes NCTC 737. This is a propionibacterial strain and is the type strain of the genus; it is fully susceptible to antibiotics. The propionibacteria are clinically significant due to their involvement in acne. They are also opportunistic pathogens in compromised hosts. Activity observed against these micro-organisms is expected to be a good predictor of activity against acne.
(§2) The propionibacteria were cultured and maintained on Wilkins-Chalgren Anaerobe Medium (agar and broth) at pH 6.0; all cultures were incubated anaerobically at 37° C. for 72 hours.
(a) Minimum Inhibitory Concentration (MIC) Assay
This is a standard international method for quantitatively assessing the antimicrobial activity of a compound in a liquid medium. The method used a sterile 96-well microtitre plate, capable of holding about 200 μl of liquid per well. The wells contained liquid culture medium and ranges of decreasing concentrations of the relevant test compound in doubling dilutions (eg 1000, 500, 250, 125 . . . μg/ml, etc, down to 0.49 μg/ml). The culture media were as described above.
(§3) The wells were inoculated with a liquid suspension of freshly grown micro-organism and incubated under the conditions described above. After incubation, the microtitre plate was examined visually (with the aid of a light box) for cloudiness in each well, which would indicate microbial growth. The MIC value was recorded as the lowest concentration of test compound required to inhibit microbial growth, ie the lowest concentration for which the liquid in the well remained clear.
The assays included both negative (culture medium with no micro-organisms) and positive (culture medium plus diluting solvent plus micro-organism) controls.

[2] = tested on: Propionibacterium acnes NCTC 737; experiment: Minimum biocidal concentration (MBC) assay; type: cell-based
Method: as §1, §2
(b) Minimum Biocidal Concentration (MBC) Assay
This assay, normally carried out after an MIC assay, determines the minimum concentration of a compound that is lethal to the micro-organism being tested.
(§4) These samples were then individually sub-cultured on antibiotic-free agar medium, under the incubation conditions described above. Following incubation they were examined visually for microbial growth.

[3] = tested on: Propionibacterium acnes NCTC 737; experiment: Disc diffusion assay (DDA) and synergy disc diffusion assay (SDDA); type: cell-based
Method: (c) Disc Diffusion Assay (DDA)
This is an internationally recognised standard method for qualitatively assessing the antimicrobial activity of a compound or combination of compounds.
A sterile paper disc was impregnated with a sample of the test compound(s) in a suitable solvent (or applied neat) and 30 minutes allowed for any of the solvents to evaporate (where possible). The disc was then placed on an agar plate onto which the test micro-organism had been inoculated. The plate was then incubated under the conditions described above, following which it was examined visually for signs of microbial growth. […] The diameter of this zone of “inhibition” was measured using a ProtoCOL™ automated zone sizer (Synbiosis, Cambridge, UK).
(d) Synergy Disc Diffusion Assay (SDDA)
This is a variation on the DDA method, in which two compounds are tested together for their combined antimicrobial activity.
Two test compounds A and B were placed on a single paper disc and the above described DDA procedure repeated.
The two compounds were then subjected in combination to the SDDA assay described above.
MIC/MBC experiments were performed in duplicate and (S)DDA experiments in triplicate.
The tropolone was dissolved in ethanol.

P. acnes NCTC 737 [4] = experiment: Fixed ratio combination MIC/MBC assays; type: cell-based, Propionibacterium acnes
Method: (§5) (g) Fixed Ratio Combination MIC/MBC Assays
(§6) This method used a sterile 96-well microtitre plate, capable of holding about 200 μl of liquid per well. The wells contained liquid culture medium and ranges of decreasing concentrations of the relevant test compounds alone in doubling dilutions (eg 1000, 500, 250, 125 . . . μg/ml, etc. down to 0.49 μg/ml) or doubling dilutions of a combination of two compounds mixed initially at a fixed concentration ratio (based on molarity in this instance). The culture medium was as described above.
as §3, with “compounds alone or concentrations of the mixture of the two test compounds” for “compound”, “the” for “the lowest concentration for which the”
(§7) The assays were conducted in triplicate and included both negative (culture medium with no micro-organisms) and positive (culture medium plus diluting solvent(s) plus micro-organism) controls.
as §4
(§8) Thus for each mixture tested, the FIC for compound A (FICA)=MIC for (A+B)/MIC for A alone. Similarly the FIC for compound B (FICB)=MIC for (A+B)/MIC for B alone. The overall FICI=FICA+FICB.
(§9) FBC & FBCI were calculated in the same manner using recorded MBC values.

C. striatum NCTC 764 = experiment: Fixed ratio combination MIC/MBC assays; type: cell-based, Corynebacterium striatum
Method: The second test organism used was Corynebacterium striatum NCTC 764. This is a Gram-positive bacterium which is closely related to organisms (aerobic diphtheroids of the genus Corynebacterium) that cause body odour (Guillet et al, Eur J Dermatol, 2000 Jan-Feb, 10(1): 41-2). The C. striatum was cultured and maintained on Mueller-Hinton Medium (agar and broth) at pH 7.3 (±0.1); cultures were incubated aerobically at 37° C. for 18-24 hours.
as §5, §6
as §3, with “compounds alone or concentrations of the mixture of the two test compounds” for “compound”, “the” for “the lowest concentration for which the”
as §7, §4, §8, §9

P. acnes NCTC 737 [5] = experiment: Synthetic sebum time-to-kill assay; type: cell-based, Propionibacterium acnes; conditions: copper sulphate 97.5 mg/L, tropolone 195 mg/L; for Log10 change: T0 to T4 hours; for Log10 cfu/ml (T4 hours): after 4 hours, lowest detectable level 3.0; for Log10 cfu/ml (T0 hours): start count
Method: (f) Synthetic Sebum Time-to-Kill Assay This quantitative assay was designed to assess the level of kill of a P. acnes culture in a synthetic sebum (non-aqueous environment) over a defined time period (in this case 4 hours). A culture of P. acnes NCTC 737 was inoculated into a synthetic sebum (a liquid mixture of lipid components designed to simulate human sebum) containing the relevant test compound dissolved in 1-octanol. […] The plates were then incubated as described above and subsequently examined visually for growth. The numbers of viable microbial colonies on the plates were counted with the aid of a colony counter and converted to colony-forming units per ml (cfu/ml) using the appropriate dilution factor. Cell counts conducted in the absence of test compound acted as positive controls. Mixtures of tropolone and copper (II) sulphate, containing various relative proportions of the two actives, were subjected to synthetic sebum time-to-kill assays against P. acnes NCTC 737, as described above. All assays were conducted in triplicate.

SMILES	MIC [1] [µg/mL]	MBC [2] [µg/mL]	MIC/MBC ratio [2]	(S)DDA with tropolone [3] [mm]	DDA zone of inhibition diameter [3] [mm]	SDDA area increase [3] [%]	SDDA increase [3] [mm]	MBC (P. acnes NCTC 737 [4]; compound alone)	MBC (C. striatum NCTC 764)	MIC (C. striatum NCTC 764)	MIC (P. acnes NCTC 737 [4]; compound alone)	Log10 change (P. acnes NCTC 737 [5]) [Log10]	Log10 cfu/ml (T4 hours) (P. acnes NCTC 737 [5]) [Log10 cfu/ml]	Log10 cfu/ml (T0 hours) (P. acnes NCTC 737 [5]) [Log10 cfu/ml]	also measured
CC(=O)[O-].CC(=O)[O-].[Cu+2] [Copper (II) acetate]	3.9	125	0.03	30.80	25.63	44.39	5.17	46 µg/mL and 34.6 µg/mL	>46.5** μg/ml	>46.5** μg/ml	–	–	–	–	–
CC(=O)[O-].[Cu+] [Copper (I) acetate]	7.8	31.25	0.25	32.35	32.14	1.29	0.21	23.3 µg/mL	>62.8** μg/ml	>62.8** μg/ml	23.3 µg/mL	–	–	–	–
O=c1cccccc1O [Tropolone, 2-hydroxy-2,4,6-cycloheptatrien-1-one]	–	–	–	–	–	–	–	–	–	–	62.5 µg/mL	−0.31	7.8	8.11	MIC ([1]; Cutibacterium acnes, NCTC737, P. acnes NCTC 737, compound alone, read-out: MIC): 15.6 µg/mL (≈ 128 µM); MBC ([2]; Cutibacterium acnes, NCTC737, P. acnes NCTC 737, compound alone, read-out: MBC): 250 µg/mL (≈ 2050 µM); MIC/MBC ratio ([2]; P. acnes NCTC 737, compound alone): 0.06; zone of inhibition at 200 µg/disc ([3]; Cutibacterium acnes, NCTC737, 200 μg tropolone and/or 12.5 μg copper sulphate per disc, read-out: (S)DDA zone of inhibition diameter): 19.1 mm; zone of inhibition at 12.5 µg/disc ([3]; Cutibacterium acnes, NCTC737, compound alone, 12.5 μg per disc (gluconate, picolinate 25 μg; silicate 12.4 μg; chlorophyllin 200 μg), read-out: DDA zone of inhibition diameter): 13.2 mm; MBC (P. acnes NCTC 737 [4]; Cutibacterium acnes, NCTC737, compound alone, read-out: MBC): > 62.5 µg/mL; MIC (P. acnes NCTC 737 [4]; Cutibacterium acnes, NCTC737, compound alone, read-out: MIC): 31.2 µg/mL; MBC (C. striatum NCTC 764; C. striatum NCTC 764, compound alone): 62.5 µg/mL; MBC (C. striatum NCTC 764; Corynebacterium striatum, NCTC764, C. striatum NCTC 764, compound alone, read-out: MBC): > 62.5 µg/mL
O.O.O.O.O.O=S(=O)([O-])[O-].[Cu+2] [Copper sulphate, copper (II) sulphate pentahydrate]	15.6	125	0.125	–	–	–	–	>40.9** μg/ml and 60.8 μg/ml	>40.9** μg/ml	>40.9** μg/ml	20.4 µg/mL and 30.4 µg/mL	−1.53	6.58	8.11	(S)DDA zone of inhibition diameter [3]: 17.3 (±2.59) mm
